PubChem BioAssay (NCI)
Several values for one entry are separate records, joined by “and”; a condition that tells them apart may be missing. Equal entries are not always repeated.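 96-well plates; 48 h exposure; 5 concentrations. Endpoints by linear interpolation between flanking doses. Not reached: highest tested concentration assigned. GI50 is the concentration that inhibits growth by half. TGI marks complete inhibition of growth.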

Legend:
Assay in all cases: growth of human tumour cells (NCI), 48 h
HOP-92 NSCLC = tested on: HOP-92 NSCLC
U251 CNS = tested on: U251 CNS
SNB-19 CNS = tested on: SNB-19 CNS
BT-549 breast = tested on: BT-549 breast
EKVX NSCLC = tested on: EKVX NSCLC
A549 NSCLC = tested on: A549 NSCLC
SF-268 CNS = tested on: SF-268 CNS
NCI-H23 lung = tested on: NCI-H23 lung
DU-145 prostate = tested on: DU-145 prostate
SN12C renal = tested on: SN12C renal

## COc1cccc(/C=C/C(=O)c2cccc(Nc3nc(Nc4ccccc4)nc(Nc4ccccc4)n3)c2)c1
HOP-92 NSCLC
  GI50: 1.24 µM
  TGI: 50.5 µM
U251 CNS
  GI50: 9.5 µM
  TGI: > 73.8 µM
SNB-19 CNS
  GI50: > 56.9 µM
  TGI: > 100 µM
BT-549 breast
  GI50: 21.7 µM
  TGI: > 72.1 µM
EKVX NSCLC
  GI50: > 20.2 µM
  TGI: > 78.6 µM
A549 NSCLC
  GI50: 30.9 µM
  TGI: > 100 µM
SF-268 CNS
  GI50: 20.9 µM
  TGI: > 89.9 µM
NCI-H23 lung
  GI50: 21.3 µM
  TGI: > 100 µM
DU-145 prostate
  GI50: 19.9 µM
  TGI: > 100 µM
SN12C renal
  GI50: 48.5 µM
  TGI: > 100 µM

## CN(C)S(=O)(=O)c1ccc(NC(=O)COC(=O)c2ccc(S(=O)(=O)N3CCCCC3)cc2)cc1
HOP-92 NSCLC
  GI50: > 100 µM
  TGI: > 100 µM
U251 CNS
  GI50: > 100 µM
  TGI: > 100 µM
SNB-19 CNS
  GI50: > 100 µM
  TGI: > 100 µM
BT-549 breast
  GI50: > 100 µM
  TGI: > 100 µM
EKVX NSCLC
  GI50: > 100 µM
  TGI: > 100 µM
A549 NSCLC
  GI50: > 100 µM
  TGI: > 100 µM
SF-268 CNS
  GI50: > 100 µM
  TGI: > 100 µM
NCI-H23 lung
  GI50: > 100 µM
  TGI: > 100 µM
DU-145 prostate
  GI50: > 100 µM
  TGI: > 100 µM
SN12C renal
  GI50: > 100 µM
  TGI: > 100 µM

## COc1c(CCC[P+](c2ccccc2)(c2ccccc2)c2ccccc2)cc2c(c1OC)OCO2
HOP-92 NSCLC
  GI50: 0.507 µM
  TGI: 4.93 µM
U251 CNS
  GI50: 1.77 µM
  TGI: 19.7 µM
SNB-19 CNS
  GI50: 1.44 µM
  TGI: 12.9 µM
BT-549 breast
  GI50: 1.24 µM
  TGI: 15 µM
EKVX NSCLC
  GI50: 3.88 µM
  TGI: 51.1 µM
A549 NSCLC
  GI50: 3.7 µM
  TGI: 38.1 µM
SF-268 CNS
  GI50: 2.04 µM
  TGI: 13.1 µM
NCI-H23 lung
  GI50: 2.19 µM
  TGI: 10.3 µM
DU-145 prostate
  GI50: 3.56 µM
  TGI: > 100 µM
SN12C renal
  GI50: 2.42 µM
  TGI: 10.4 µM

## COc1cc(C2c3cc4c(cc3[C@@H](Nc3ccc(C#N)cc3)C3COC(=O)[C@H]23)OCO4)cc(OC)c1O (some centres not stated)
HOP-92 NSCLC
  GI50: 0.685 µM
  TGI: 6.77 µM and 5.99 µM
U251 CNS
  GI50: 0.879 µM
SNB-19 CNS
  GI50: 0.314 µM and 0.768 µM
BT-549 breast
  GI50: 1.71 µM
  TGI: 33.8 µM and 7.42 µM
EKVX NSCLC
  GI50: 2.21 µM and 3.71 µM
  TGI: 50 µM and 12.8 µM and > 100 µM
A549 NSCLC
  GI50: 0.107 µM
  TGI: 6.1 µM and 2.35 µM and 2.96 µM
SF-268 CNS
  GI50: 1.4 µM
  TGI: 42.5 µM and > 100 µM
NCI-H23 lung
  GI50: 0.753 µM and 0.532 µM
  TGI: 2.53 µM and 3.67 µM and 4.36 µM
DU-145 prostate
  TGI: 1.17 µM and 6.87 µM
SN12C renal
  GI50: 1.91 µM and 0.728 µM

## Nc1cc2cccc[n+]2c2cc(Cl)ccc12
HOP-92 NSCLC
  GI50: 22.7 µM
  TGI: 69.6 µM
U251 CNS
  GI50: 4.56 µM
  TGI: 25.4 µM
SNB-19 CNS
  GI50: 9.23 µM
  TGI: 55.5 µM
BT-549 breast
  GI50: 7.24 µM
  TGI: 25.2 µM
EKVX NSCLC
  GI50: 34 µM
A549 NSCLC
  GI50: 56.3 µM
SF-268 CNS
  GI50: 4.03 µM
  TGI: 21.7 µM
NCI-H23 lung
  GI50: 13.2 µM
  TGI: 53.6 µM
DU-145 prostate
  GI50: 30.7 µM
SN12C renal
  GI50: 5.56 µM
  TGI: 35.4 µM

## CCN(CC)S(=O)(=O)c1ccc(OC)c(Nc2ncc(-c3ccccc3)o2)c1
HOP-92 NSCLC
  GI50: 7.12 µM
  TGI: > 25 µM
U251 CNS
  GI50: > 18.7 µM
  TGI: > 25 µM
SNB-19 CNS
  GI50: > 19.2 µM
  TGI: > 25 µM
BT-549 breast
  GI50: > 18.4 µM
  TGI: > 25 µM
EKVX NSCLC
  GI50: > 25 µM
  TGI: > 25 µM
A549 NSCLC
  GI50: 24.9 µM
  TGI: > 25 µM
SF-268 CNS
  GI50: > 22.3 µM
  TGI: > 25 µM
NCI-H23 lung
  GI50: > 22.7 µM
  TGI: > 25 µM
DU-145 prostate
  GI50: > 25 µM
  TGI: > 25 µM
SN12C renal
  GI50: > 22.7 µM
  TGI: > 25 µM

## CCN1C(=O)N(CC)C2C1NN=c1s/c(=C\c3cccnc3)c(=O)n12 (configuration not stated)
HOP-92 NSCLC
  TGI: > 100 µM
U251 CNS
  GI50: 0.612 µM
  TGI: > 100 µM
SNB-19 CNS
  GI50: 0.676 µM
  TGI: > 100 µM
BT-549 breast
  GI50: 1.04 µM
  TGI: 19.9 µM
EKVX NSCLC
  GI50: 0.659 µM
  TGI: > 100 µM
A549 NSCLC
  GI50: 0.733 µM
  TGI: > 100 µM
SF-268 CNS
  GI50: 21.8 µM
  TGI: > 100 µM
NCI-H23 lung
  GI50: 0.689 µM
  TGI: > 100 µM
DU-145 prostate
  GI50: 0.412 µM
  TGI: > 48.7 µM
SN12C renal
  GI50: 0.616 µM
  TGI: > 100 µM

## COc1ccc2nc3cc([N+](=O)[O-])ccc3c(NCCCCCN(C)C)c2c1
HOP-92 NSCLC
  GI50: 0.148 µM
  TGI: 0.49 µM
U251 CNS
  GI50: 0.218 µM
  TGI: 2.64 µM
SNB-19 CNS
  GI50: 0.301 µM
  TGI: 1.23 µM
BT-549 breast
  GI50: 1.77 µM
  TGI: 3.55 µM
EKVX NSCLC
  GI50: 1.59 µM
  TGI: 7.27 µM
A549 NSCLC
  GI50: 0.25 µM
  TGI: 1.15 µM
SF-268 CNS
  GI50: 0.285 µM
  TGI: 2.26 µM
NCI-H23 lung
  GI50: 0.25 µM
  TGI: 1.54 µM
DU-145 prostate
  GI50: 0.286 µM
  TGI: 11.3 µM
SN12C renal
  GI50: 0.179 µM
  TGI: 0.631 µM

## Cc1occc1C(=S)Nc1ccc(Cl)c(COC(C)(C)C)c1
HOP-92 NSCLC
  TGI: 30.4 µM
U251 CNS
  TGI: 28.9 µM
SNB-19 CNS
  TGI: 48.2 µM
BT-549 breast
  TGI: 33.6 µM
EKVX NSCLC
  TGI: 37.1 µM
A549 NSCLC
  TGI: 41.8 µM
SF-268 CNS
  TGI: 35.9 µM
NCI-H23 lung
  TGI: 35.7 µM
DU-145 prostate
  TGI: 46.9 µM
SN12C renal
  TGI: 29.2 µM

## CNC(=O)n1ccc2cc(Oc3ccnc(NC(=O)c4ccc(C5CCN(CCO)CC5)cc4)c3)c(OCCOC)cc21
HOP-92 NSCLC
  GI50: 3.48 µM
  TGI: 20.6 µM
U251 CNS
  GI50: 3.15 µM
  TGI: 12.3 µM
SNB-19 CNS
  GI50: 7.47 µM
  TGI: 21.5 µM
BT-549 breast
  GI50: 2.35 µM
  TGI: 14.2 µM
EKVX NSCLC
  GI50: 14.7 µM
  TGI: 29.3 µM
A549 NSCLC
  GI50: 5.27 µM
  TGI: 21.4 µM
SF-268 CNS
  GI50: 10.2 µM
  TGI: 23 µM
NCI-H23 lung
  GI50: 10.5 µM
  TGI: 24.4 µM
DU-145 prostate
  GI50: 11.2 µM
  TGI: 23.2 µM
SN12C renal
  GI50: 13.5 µM
  TGI: 27.9 µM

## CC1(C)SC2C(NC(=O)C(N)c3ccccc3)C(=O)N2C1C(=O)O (configuration not stated)
HOP-92 NSCLC
  TGI: > 100 µM
U251 CNS
  TGI: > 100 µM
SNB-19 CNS
  TGI: > 100 µM
BT-549 breast
  TGI: > 100 µM
EKVX NSCLC
  TGI: > 100 µM
A549 NSCLC
  TGI: > 100 µM
SF-268 CNS
  TGI: > 100 µM
NCI-H23 lung
  TGI: > 100 µM
DU-145 prostate
  TGI: > 100 µM
SN12C renal
  TGI: > 100 µM

## Cc1ccc(S(=O)(=O)N2CCSCCSCCSCCSCC2)cc1
HOP-92 NSCLC
  TGI: 23.4 µM
U251 CNS
  TGI: 35.3 µM
SNB-19 CNS
  TGI: 47.3 µM
BT-549 breast
  TGI: 44 µM
EKVX NSCLC
  TGI: > 89.9 µM
A549 NSCLC
  TGI: > 100 µM
SF-268 CNS
  TGI: > 75.8 µM
NCI-H23 lung
  TGI: > 92.6 µM
DU-145 prostate
  TGI: > 100 µM
SN12C renal
  TGI: > 96.8 µM

## COC1(C(=O)N[C@@H](C)c2ccc(-n3cc(F)cn3)nc2)CCC(c2nc(C)cc(Nc3cc(C)[nH]n3)n2)CC1 (some centres not stated)
HOP-92 NSCLC
  GI50: 0.481 µM
  TGI: 2.58 µM
U251 CNS
  GI50: 1.25 µM
  TGI: 22.6 µM
SNB-19 CNS
  GI50: 2.29 µM
  TGI: 51.4 µM
BT-549 breast
  GI50: 0.627 µM
  TGI: 6.01 µM
EKVX NSCLC
  GI50: 0.688 µM
  TGI: 2.94 µM
A549 NSCLC
  GI50: 1.78 µM
  TGI: 16.3 µM
SF-268 CNS
  GI50: 0.811 µM
  TGI: 8.04 µM
NCI-H23 lung
  GI50: 2.6 µM
  TGI: 19.9 µM
DU-145 prostate
  GI50: 1.8 µM
  TGI: 4.63 µM
SN12C renal
  GI50: 0.581 µM
  TGI: 12.4 µM

## O=C(Cn1ccc(=O)[nH]c1=O)Nc1ccc(C(=O)O)c(O)c1
HOP-92 NSCLC
  TGI: > 100 µM
U251 CNS
  TGI: > 100 µM
SNB-19 CNS
  TGI: > 100 µM
BT-549 breast
  TGI: > 100 µM
EKVX NSCLC
  TGI: > 100 µM
A549 NSCLC
  TGI: > 100 µM
SF-268 CNS
  TGI: > 100 µM
NCI-H23 lung
  TGI: > 100 µM
DU-145 prostate
  TGI: > 100 µM
SN12C renal
  TGI: > 100 µM
